Source: patent US20250338846A1, “COMPOSITIONS HAVING PESTICIDAL UTILITY AND PROCESSES RELATED THERETO” (CORTEVA AGRISCIENCE, LLC, priority 2022, published 2025)
Values joined by “and” are separate entries in the source; they are usually repeats but may differ in a detail not shown here. Equal values may be shown once.

Key:
[1] = tested on: Cotton Aphid (Aphis gossypii, APHIGO); assay: Bioassay 7: Cotton Aphid, foliar spray on infested cotton seedlings, live aphids counted three days after treatment; type: in vivo
[2] = tested on: Sweet Potato Whitefly (Bemisia tabaci, BEMITA); assay: Bioassay 8: Sweet Potato Whitefly, spray on cotton seedlings at crawler emergence, nymphs counted 7-9 days after treatment; type: in vivo; details: F1 alone 0.8 (10^-5) Wt %

CCN(C(=O)CCS(C)(=O)=O)c1sc(-c2cccnc2)nc1Cl [Formula F1, N-(4-chloro-2-(pyridin-3-yl)thiazol-5-yl)-N-ethyl-3-(methylsulfonyl)propanamide]
Average % Control F1 ([1]; F1 alone 0.1 (10^-5) Wt %): 24.39% | Average % Control F1 ([1]; F1 alone 0.2 (10^-5) Wt %): 5.79% | Average % Control F1 ([1]; F1 alone 0.78 (10^-5) Wt %): 25.58% | Average % Control F1 ([1]; F1 alone 0.8 (10^-5) Wt %): 24.39% and 47.56% | Average % Control F1 ([1]; F1 alone 2.5 (10^-5) Wt %): 29.04% | Average % Control F1 [2]: 74.86%
